System: not listed separately
Test: Cytotoxicity on uninfected Hep-2 cells (MTT, 48 h)
Type: cell-based
Settings: human, read-out: CC50 (reduce cell viability by 50%), CVB3 host cells
Experimental: (§1) Human laryngeal carcinoma cells (Hep-2) and human cervical carcinoma cells (HeLa) were maintained in DMEM (Gibco) supplemented with 10% fetal bovine serum (FBS; Gibco), 100 U/mL penicillin and streptomycin, and 2 mM L-glutamine.
(§2) The antiviral activities of compounds against CVB3 and ADV7 were determined by measuring their inhibition of virus-induced CPEs in acutely infected Hep-2 and HeLa cells, respectively. Confluent cell monolayers in 96-well plates were infected with 100 TCID50 of CVB3 or ADV7 for 1.5 h at 37 °C, inocula were aspirated, and the cells then were incubated with various concentrations of compounds at 37 °C, 5% CO2, for 48 h. CPEs were observed by microscopy and the viability of cells was determined using MTT assays. The concentrations of test compounds required to achieve 50% protection from virus-induced cytopathogenicity (EC50 values) were determined. Adverse effects of tested compounds on host cells were also assessed using the MTT method after exposing uninfected cells to various concentrations of test compounds for 48 h at 37 °C. The CC50 values of compounds were calculated using SPSS software and selectivity indices were the ratio of CC50:EC50. Each experiment was performed in triplicate and at least three times, independently.

Structure (SMILES) | CC50 at 48 h [µM]
NC(=O)c1ncn([C@@H]2O[C@H](CO)[C@@H](O)[C@H]2O)n1 [Ribavirin, reference compound] | 836
Cc1ccc(OC(=O)C(C)(C)C)c(-c2ccccn2)c1 [W13] | 424 ± 26.8
CC(=O)Oc1ccc(-c2ccccn2)c(OC(=O)c2ccccc2)c1 [W15] | 451 ± 32.4
O=C(Oc1cc(Cl)ccc1-c1ccccn1)c1ccccc1 [W9] | 148 ± 11.6

System: not listed separately
Test: Cytotoxicity on uninfected HeLa cells (MTT, 48 h)
Type: cell-based
Settings: human, read-out: CC50 (reduce cell viability by 50%), ADV7 host cells
Experimental: as §1, §2

Structure (SMILES) | CC50 at 48 h [µM]
NC(=O)c1ncn([C@@H]2O[C@H](CO)[C@@H](O)[C@H]2O)n1 [Ribavirin, reference compound] | 807
Cc1ccc(OC(=O)C(C)(C)C)c(-c2ccccn2)c1 [W13] | > 372
CC(=O)Oc1ccc(-c2ccccn2)c(OC(=O)c2ccccc2)c1 [W15] | 795 ± 33.8
O=C(Oc1cc(Cl)ccc1-c1ccccn1)c1ccccc1 [W9] | 265 ± 28.1

System: CVB3
Test: CVB3 progeny virus yield in Hep-2 cells (TCID50 titration)
Type: cell-based, Coxsackievirus B3
Settings: 36 h, 120 μM W-9, 160 μM W-13, 160 μM W-15, 160 μM ribavirin
Experimental: Based on their antiviral activities and therapeutic selectivity indices, the effects on virus progeny yields of compounds W9, W13, and W15 were further investigated, using ribavirin as a positive control drug. To this end, confluent monolayers of Hep-2 or HeLa cells in 96-well plates were infected with 100 × median tissue culture infective dose (TCID50) of CVB3 or ADV7, then treated with 120 μM W-9, 160 μM W-13, 160 μM W-15, or 160 μM ribavirin. After 36 h, culture media and cell lysates were collected, following freeze-thaw cycles, and then subjected to virus titration.
Figure 2 The effects of W9, W13, and W15 on progeny virus production. Hep-2 cells infected with 100 TCID50 of CVB3 (a), or HeLa cells infected with 100 TCID50 of ADV7(b), were incubated in the absence (virus control) or presence of 120 μM W-9, 160 μM W-13, 160 μM W-15, or 160 μM ribavirin for 36 h, and the culture media and cell lysates then harvested for virus titration. Viral titers are presented as Log10 TCID50/mL. * p < 0.05; ** p < 0.01, compared with the virus control group.
CVB3 or ADV7 suspensions, serially diluted 10-fold with DMEM containing 2% FBS (DMEM maintenance medium, MM), were inoculated to Hep-2 or HeLa cells in 96-well plates. After 1.5 h incubation at 37 °C in 5% CO2, unbound virus was washed out and the MM was added to the cells. After 2 days, infected cells were monitored for CPEs and virus titers were calculated using the Reed–Muench method.

Structure (SMILES) | reduction in CVB3 virus progeny titer relative to untreated control
NC(=O)c1ncn([C@@H]2O[C@H](CO)[C@@H](O)[C@H]2O)n1 [Ribavirin, reference compound] | approximately 2.0 log
Cc1ccc(OC(=O)C(C)(C)C)c(-c2ccccn2)c1 [W13] | approximately 2.5 log
CC(=O)Oc1ccc(-c2ccccn2)c(OC(=O)c2ccccc2)c1 [W15] | approximately 2.5 log
O=C(Oc1cc(Cl)ccc1-c1ccccn1)c1ccccc1 [W9] | approximately 2.5 log

System: CVB3
Test: Analysis of effective stage (prevention, mixture, treatment modes)
Type: cell-based, Coxsackievirus B3
Settings: Hep-2 cells, cell viability after 48 h, prevention and mixture modes
Experimental: The mechanisms by which W9, W13, and W15 inhibit CVB3 infection were further investigated by three different approaches, using ribavirin as a positive control. Antiviral effects against CVB3 were detected by measuring cell viability after 48 h of infection when cells were treated with compounds W9, W13, and W15 before, simultaneously, or after inoculation with CVB3 (100 TCID50).
(§3) Figure 3 Analysis of the modes of action of W9, W13, and W15 against CVB3. (a) Analysis of effective stage. The antiviral effects of test compounds against CVB3 were detected by measuring cell viability after 48 h of infection when cells were treated with W9, W13, or W15 before, simultaneously, or after inoculation with CVB3 (100 TCID50). (b) Analysis of the effects on CVB3 adsorption. Mock-, 120 μM W-9-, 160 μM W-13-, 160 μM W-15-, or 160 μM ribavirin-treated CVB3 (10^6 TCID50) was inoculated onto Hep-2 cells and adsorbed for 2 h. Infected cells were then harvested and subjected to virus titration, using the TCID50 method. (c) The effects of test compounds on CVB3 release from Hep-2 cells. Hep-2 cells infected with 100 TCID50 of CVB3 were incubated with test compounds for 12 h, then cells and culture supernatants (intra- and extracellular) analyzed for virus yield, separately or together. Mock, no infection; VC, virus control. Values represent the means ± SDs of three independent experiments. * p < 0.05; ** p < 0.01, compared with the virus control group.
To identify the step in the life cycle of CVB3 that was affected by the compounds, various concentrations of W9, W13, and W15 were added to Hep-2 cells, and the following three treatment procedures conducted: (i) To evaluate preventive effects (prevention mode of action), various concentrations of compounds were added to cells for 2 h at 37 °C, followed by washing with MM before virus infection; (ii) To analyze for inhibition of adsorption (mixture mode of action), a mixture of compound and virus was added to cells for 2 h at 37 °C, followed by washing with MM; (iii) To assess therapeutic effects (treatment mode of action), cells were first infected for 2 h at 37 °C, followed by washing with MM, addition of the compounds, and incubation for the duration of the experiment. For all procedures, cell viability was estimated after 48 h of infection, using MTT assays.

Structure (SMILES) | inhibition of CVB3, compound added just before or during infection
Cc1ccc(OC(=O)C(C)(C)C)c(-c2ccccn2)c1 [W13] | no significant inhibition
CC(=O)Oc1ccc(-c2ccccn2)c(OC(=O)c2ccccc2)c1 [W15] | no significant inhibition
O=C(Oc1cc(Cl)ccc1-c1ccccn1)c1ccccc1 [W9] | no significant inhibition

Same assay, conditions: Hep-2 cells, cell viability after 48 h, treatment mode

Structure (SMILES) | inhibitory effect against CVB3, compound added post infection
Cc1ccc(OC(=O)C(C)(C)C)c(-c2ccccn2)c1 [W13] | most powerful inhibitory effects
CC(=O)Oc1ccc(-c2ccccn2)c(OC(=O)c2ccccc2)c1 [W15] | most powerful inhibitory effects
O=C(Oc1cc(Cl)ccc1-c1ccccn1)c1ccccc1 [W9] | most powerful inhibitory effects

System: CVB3
Test: Viral release analysis
Type: cell-based, Coxsackievirus B3
Settings: Hep-2 cells, 12 h; intra- and extracellular titers; 120 μM W-9, 160 μM W-13, W-15, ribavirin
Experimental: as §3
The viral life cycle is completed by release of progeny for further infection of neighboring cells. Therefore, we tested whether viral release from cells is affected by W9, W13, and W15. Hep-2 cells infected with 100 TCID50 of CVB3 were incubated with test compounds for 12 h, then both cells and supernatants (intra- and extracellular), or one of which was harvested separately, and virus yields were determined. Ribavirin was used as the positive control.
Hep-2 cells were treated with or without 120 μM W-9, 160 μM W-13, 160 μM W-15, or 160 μM ribavirin after infection with 100 TCID50 of CVB3. Supernatants and cells were harvested together or separately for the determination of progeny virus yields at 12 h pi by the Reed–Muench method.

Structure (SMILES) | effect on CVB3 release from cells
NC(=O)c1ncn([C@@H]2O[C@H](CO)[C@@H](O)[C@H]2O)n1 [Ribavirin, reference compound] | do not act on viral release from cells
Cc1ccc(OC(=O)C(C)(C)C)c(-c2ccccn2)c1 [W13] | do not act on viral release from cells
CC(=O)Oc1ccc(-c2ccccn2)c(OC(=O)c2ccccc2)c1 [W15] | do not act on viral release from cells
O=C(Oc1cc(Cl)ccc1-c1ccccn1)c1ccccc1 [W9] | do not act on viral release from cells
